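Protocol summary: plate cells (96-well), add compound at 5 concentrations, incubate 48 h, interpolate endpoints linearly. At the GI50, growth is halved.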 Calls of active or inactive are those of the source. Rule as the data show it: active = GI50 up to about 1.1 µM and inactive = higher.
Columns and labels:
Assay in all cases: NCI tumour cell line growth inhibition, 48 h
[1] = tested on: CAKI-1
[2] = tested on: RXF 393
[3] = tested on: SR
[4] = tested on: MDA-MB-435
[5] = tested on: ACHN
[6] = tested on: MCF7
[7] = tested on: SF-295
[8] = tested on: OVCAR-4
[9] = tested on: K562
[10] = tested on: CCRF-CEM
[11] = tested on: RPMI-8226
[12] = tested on: NCI-H23
[13] = tested on: TK-10
[14] = tested on: A498
[15] = tested on: UACC-257
[16] = tested on: SK-MEL-5
[17] = tested on: NCI-H522
[18] = tested on: HCT-116
[19] = tested on: IGROV-1
[20] = tested on: SNB-75

Compound	GI50 [1]	GI50 [2]	GI50 [3]	GI50 [4]	GI50 [5]	GI50 [6]	GI50 [7]	GI50 [8]	GI50 [9]	GI50 [10]	GI50 [11]	GI50 [12]	GI50 [13]	GI50 [14]	GI50 [15]	GI50 [16]	GI50 [17]	GI50 [18]	GI50 [19]	GI50 [20]
CCOC(=O)C1(C#N)C2(C#N)C(N)=NC(ON=C(C)C)(ON=C(C)C)C12C#N (stereo not given)	> 100 µM (inactive)	> 100 µM (inactive)	> 100 µM (inactive)	> 100 µM (inactive)	> 100 µM (inactive)	> 100 µM (inactive)	> 100 µM (inactive)	> 100 µM (inactive)	> 100 µM (inactive)	> 100 µM (inactive)	> 100 µM (inactive)	> 100 µM (inactive)	> 100 µM (inactive)	> 100 µM (inactive)	> 100 µM (inactive)	> 100 µM (inactive)	> 100 µM (inactive)	> 100 µM (inactive)	> 100 µM (inactive)	–
CCN(CC)c1ccc2cc(-c3nnc(-c4ccccc4)[nH]3)c(=O)oc2c1	26.9 µM (inactive)	–	70.5 µM (inactive)	41.9 µM (inactive)	36.7 µM (inactive)	> 100 µM (inactive)	24.5 µM (inactive)	7.36 µM (inactive)	> 100 µM (inactive)	39.7 µM (inactive)	54.2 µM (inactive)	6.49 µM (inactive)	–	22.9 µM (inactive)	> 100 µM (inactive)	> 100 µM (inactive)	18.7 µM (inactive)	35.8 µM (inactive)	17.7 µM (inactive)	–
CN(C)CC(C)(C)CN1c2ccccc2Sc2ccccc21	12.1 µM (inactive)	2.12 µM (inactive)	10.1 µM (inactive)	13.4 µM (inactive)	15.1 µM (inactive)	16.4 µM (inactive)	13.8 µM (inactive)	12.9 µM (inactive)	8.55 µM (inactive)	–	16.4 µM (inactive)	16.4 µM (inactive)	13.9 µM (inactive)	13.6 µM (inactive)	12 µM (inactive)	16 µM (inactive)	13.2 µM (inactive)	13.8 µM (inactive)	14.9 µM (inactive)	4.28 µM (inactive)
CCOc1ccc2ccc3cccnc3c2n1	> 100 µM (inactive)	68.9 µM (inactive)	18.9 µM (inactive)	49.3 µM (inactive)	40.6 µM (inactive)	18.4 µM (inactive)	39.3 µM (inactive)	69.2 µM (inactive)	31.9 µM (inactive)	59 µM (inactive)	23.2 µM (inactive)	61.7 µM (inactive)	34.2 µM (inactive)	21 µM (inactive)	26.9 µM (inactive)	32.7 µM (inactive)	> 100 µM (inactive)	34 µM (inactive)	38.5 µM (inactive)	85.9 µM (inactive)
N#CC1=C(N)OC2=C(CSc3ccccc32)C1c1ccc(Br)cc1 (stereo not given)	4.49 µM (inactive)	4.04 µM (inactive)	2.54 µM (inactive)	2.6 µM (inactive)	–	3.42 µM (inactive)	12.4 µM (inactive)	5.79 µM (inactive)	3.38 µM (inactive)	2.72 µM (inactive)	2.07 µM (inactive)	9.75 µM (inactive)	13.6 µM (inactive)	13 µM (inactive)	12.1 µM (inactive)	11.6 µM (inactive)	–	2.96 µM (inactive)	6.97 µM (inactive)	7.62 µM (inactive)
O=[N+]([O-])c1c2nc3n(c2cc2c1nc1n2CCC1)CCC3	> 100 µM (inactive)	> 100 µM (inactive)	> 100 µM (inactive)	> 100 µM (inactive)	> 100 µM (inactive)	> 100 µM (inactive)	> 100 µM (inactive)	> 100 µM (inactive)	> 100 µM (inactive)	> 100 µM (inactive)	> 100 µM (inactive)	> 100 µM (inactive)	> 100 µM (inactive)	> 100 µM (inactive)	> 100 µM (inactive)	> 100 µM (inactive)	> 100 µM (inactive)	> 100 µM (inactive)	> 100 µM (inactive)	> 100 µM (inactive)
N#CC(c1ccccc1)c1cccc2ccccc12 (stereo not given)	17.4 µM (inactive)	–	12.3 µM (inactive)	20.2 µM (inactive)	44.8 µM (inactive)	33.6 µM (inactive)	46.7 µM (inactive)	47.5 µM (inactive)	26 µM (inactive)	–	25.7 µM (inactive)	42.1 µM (inactive)	42.4 µM (inactive)	30.4 µM (inactive)	24.4 µM (inactive)	18.2 µM (inactive)	22 µM (inactive)	65 µM (inactive)	19.9 µM (inactive)	> 100 µM (inactive)
CCOC(=O)N/N=C(\CC)NO	> 100 µM (inactive)	> 100 µM (inactive)	> 100 µM (inactive)	> 100 µM (inactive)	> 100 µM (inactive)	> 100 µM (inactive)	–	> 100 µM (inactive)	> 100 µM (inactive)	> 100 µM (inactive)	> 100 µM (inactive)	> 100 µM (inactive)	> 100 µM (inactive)	> 100 µM (inactive)	> 100 µM (inactive)	> 100 µM (inactive)	> 100 µM (inactive)	> 100 µM (inactive)	> 100 µM (inactive)	–
CN(C)CCCCCNc1c2ccccc2nc2cccc([N+](=O)[O-])c12	0.00229 µM (active)	0.0037 µM (active)	0.000447 µM (active)	0.0002 µM (active)	0.000766 µM (active)	0.00583 µM (active)	0.00105 µM (active)	0.000653 µM (active)	0.000986 µM (active)	0.024 µM (active)	0.00042 µM (active)	0.000785 µM (active)	0.00337 µM (active)	0.00258 µM (active)	0.00918 µM (active)	0.00154 µM (active)	–	0.00074 µM (active)	0.0022 µM (active)	0.00163 µM (active)
Nn1c(SCC(=O)NCc2ccccc2)nc2ccccc2c1=O	84.1 µM (inactive)	34.1 µM (inactive)	21.1 µM (inactive)	45.8 µM (inactive)	40.6 µM (inactive)	52.1 µM (inactive)	48.6 µM (inactive)	54.2 µM (inactive)	27.8 µM (inactive)	13.7 µM (inactive)	40.8 µM (inactive)	82.8 µM (inactive)	41.5 µM (inactive)	61.2 µM (inactive)	58.2 µM (inactive)	41 µM (inactive)	41.7 µM (inactive)	29.4 µM (inactive)	53.3 µM (inactive)	> 100 µM (inactive)
COC(=O)c1c(OC(C)=O)ccc2c1c1c(n2C)C(=O)c2ccccc2C1=O	20.7 µM (inactive)	37.1 µM (inactive)	31.1 µM (inactive)	23.9 µM (inactive)	15.6 µM (inactive)	18.7 µM (inactive)	21.5 µM (inactive)	28.6 µM (inactive)	66.2 µM (inactive)	–	8.15 µM (inactive)	19.7 µM (inactive)	31 µM (inactive)	13.5 µM (inactive)	13.1 µM (inactive)	13.9 µM (inactive)	21.7 µM (inactive)	20.5 µM (inactive)	3.86 µM (inactive)	7.93 µM (inactive)
Cc1ccc(/C=C2\CNC/C(=C\c3ccc(C)cc3)C2=O)cc1	2.46 µM (inactive)	–	0.44 µM (active)	3.03 µM (inactive)	2.19 µM (inactive)	0.513 µM (active)	3.54 µM (inactive)	2.34 µM (inactive)	0.323 µM (active)	0.689 µM (active)	0.248 µM (active)	1.83 µM (inactive)	5.48 µM (inactive)	1.89 µM (inactive)	6.46 µM (inactive)	2.43 µM (inactive)	1.87 µM (inactive)	0.313 µM (active)	1.9 µM (inactive)	22.9 µM (inactive)
COc1cc(/C=C2\C[C@H]3[C@@H]4CCc5cc(OCCN6CCCC6)ccc5[C@H]4CC[C@]3(C)C2=O)cc(OC)c1OC	1.75 µM (inactive)	1.57 µM (inactive)	0.314 µM (active)	1.61 µM (inactive)	1.79 µM (inactive)	1.65 µM (inactive)	1.79 µM (inactive)	1.6 µM (inactive)	1.62 µM (inactive)	–	1.66 µM (inactive)	2.41 µM (inactive)	2.53 µM (inactive)	1.78 µM (inactive)	2.2 µM (inactive)	1.53 µM (inactive)	–	1.54 µM (inactive)	1.57 µM (inactive)	–
O=C(O)CN1C=C(C(=O)c2cc3ccccc3n2S(=O)(=O)c2ccccc2)CCC1	> 100 µM (inactive)	54.5 µM (inactive)	36.4 µM (inactive)	43.5 µM (inactive)	29.6 µM (inactive)	49.9 µM (inactive)	69.5 µM (inactive)	83.9 µM (inactive)	24.2 µM (inactive)	30.9 µM (inactive)	–	50.6 µM (inactive)	> 100 µM (inactive)	69.3 µM (inactive)	> 100 µM (inactive)	24.9 µM (inactive)	–	57.3 µM (inactive)	37.2 µM (inactive)	27.5 µM (inactive)
CCC[C@H]1C(=O)N=C(N)N1C(=O)OCc1ccccc1	> 100 µM (inactive)	> 100 µM (inactive)	> 100 µM (inactive)	> 100 µM (inactive)	> 100 µM (inactive)	> 100 µM (inactive)	> 100 µM (inactive)	> 100 µM (inactive)	> 100 µM (inactive)	–	> 100 µM (inactive)	> 100 µM (inactive)	> 100 µM (inactive)	> 100 µM (inactive)	> 100 µM (inactive)	> 100 µM (inactive)	> 100 µM (inactive)	> 100 µM (inactive)	> 100 µM (inactive)	> 100 µM (inactive)

From ChEMBL document CHEMBL1201862, “PubChem BioAssay data set” (2004)
